Read-outs that look alike come from different tables or passages of the source.
Key:
Format in all cases: biochemical
hCDK1/B = hCDK1/B (Homo sapiens, UniProt P06493); experiment: hCDK1/B
CDK2 cyA = CDK2 cyA (Homo sapiens, UniProt P24941); experiment: CDK2 cyA IMAP
CDK4 = CDK4 (Homo sapiens, UniProt P11802); experiment: CDK4 HTRF
[1] = Table 2, read-out: CDK2cyA IMAP/ IC50
[2] = Table 2, read-out: CDK4 HTRF/ IC50
[3] = Table 1, read-out: CDK2 cyA IMAP

Sequence of CDK4 (P11802 whole entry): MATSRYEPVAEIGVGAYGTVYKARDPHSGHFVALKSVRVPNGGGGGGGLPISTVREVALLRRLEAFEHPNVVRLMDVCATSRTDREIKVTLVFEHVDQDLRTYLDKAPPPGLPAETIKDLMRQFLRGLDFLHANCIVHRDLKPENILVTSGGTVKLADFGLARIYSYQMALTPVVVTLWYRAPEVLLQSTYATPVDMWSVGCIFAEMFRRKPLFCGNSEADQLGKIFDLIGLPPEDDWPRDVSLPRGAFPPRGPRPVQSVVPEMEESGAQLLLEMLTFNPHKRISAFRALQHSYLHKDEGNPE
Sequence of CDK4 (P24385 whole entry partner): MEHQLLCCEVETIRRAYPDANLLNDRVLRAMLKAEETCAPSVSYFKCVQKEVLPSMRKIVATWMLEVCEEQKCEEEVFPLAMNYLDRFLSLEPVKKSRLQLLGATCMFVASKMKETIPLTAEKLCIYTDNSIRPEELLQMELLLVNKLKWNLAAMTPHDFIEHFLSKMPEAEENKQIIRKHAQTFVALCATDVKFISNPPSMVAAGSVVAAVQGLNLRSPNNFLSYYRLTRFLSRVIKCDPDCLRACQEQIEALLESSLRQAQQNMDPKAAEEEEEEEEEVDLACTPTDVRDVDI
Sequence of hCDK1/B (P06493 whole entry): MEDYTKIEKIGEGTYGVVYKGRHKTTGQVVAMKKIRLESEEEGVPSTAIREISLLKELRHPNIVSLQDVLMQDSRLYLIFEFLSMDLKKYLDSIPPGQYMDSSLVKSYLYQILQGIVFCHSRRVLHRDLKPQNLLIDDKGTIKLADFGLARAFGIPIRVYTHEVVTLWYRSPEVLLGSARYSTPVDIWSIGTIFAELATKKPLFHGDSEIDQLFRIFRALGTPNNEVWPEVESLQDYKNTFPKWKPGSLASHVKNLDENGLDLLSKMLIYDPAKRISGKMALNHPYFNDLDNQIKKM
Sequence of hCDK1/B (P14635 whole entry partner): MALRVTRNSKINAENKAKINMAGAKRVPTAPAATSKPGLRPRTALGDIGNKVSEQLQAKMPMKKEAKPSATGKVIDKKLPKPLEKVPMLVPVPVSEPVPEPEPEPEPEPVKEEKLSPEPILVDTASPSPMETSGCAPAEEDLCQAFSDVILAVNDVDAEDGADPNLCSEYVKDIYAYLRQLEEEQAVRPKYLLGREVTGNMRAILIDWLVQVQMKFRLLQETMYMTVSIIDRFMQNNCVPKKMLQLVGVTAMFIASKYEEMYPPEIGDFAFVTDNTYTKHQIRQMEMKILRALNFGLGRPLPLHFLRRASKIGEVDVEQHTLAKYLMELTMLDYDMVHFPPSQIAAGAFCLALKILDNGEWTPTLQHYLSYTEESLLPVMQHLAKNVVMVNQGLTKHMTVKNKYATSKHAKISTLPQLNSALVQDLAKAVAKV

SMILES	IC50 (hCDK1/B; Table 2)	IC50 (CDK2 cyA; [1])	IC50 (CDK4; [2])	IC50 (hCDK1/B; Table 1)	IC50 (CDK2 cyA; [3])	IC50 (CDK4; Table 1, read-out: CDK4 HTRF)
COCCNc1cc(-c2cn[nH]c2C(C)C)ccn1 [Example 5]				< 10 µM	< 10 µM	< 5 µM
CC(C)CNc1cc(-c2cn[nH]c2C(C)C)ccn1 [Example 9]				< 0.5 µM	< 0.5 µM	< 0.5 µM
CC(C)c1[nH]ncc1-c1ccnc(NCCc2ccccc2)c1 [Example 37]				< 5 µM	< 1 µM	< 0.5 µM
CC(C)c1[nH]ncc1-c1ccnc(NCC2CCCO2)c1 (stereo not drawn) [Example 13]				< 5 µM	< 10 µM	< 5 µM
CC(C)c1[nH]ncc1-c1ccnc(NCCCN2CCCC2)c1 [Example 19]				≥ 15 µM	≥ 15 µM	< 10 µM
CC(C)c1[nH]ncc1-c1ccnc(NCc2ccco2)c1 [Example 24]				< 5 µM	< 5 µM	< 1 µM
CCCNc1cc(-c2cn[nH]c2C(C)C)ccn1 [Example 44]				< 5 µM	< 5 µM	< 0.5 µM
CC(C)c1[nH]ncc1-c1ccnc(NCC2CCCCC2)c1 [Example 6]				< 5 µM	< 5 µM	< 5 µM
CC(C)c1[nH]ncc1-c1ccnc(NCCCn2ccnc2)c1 [Example 41]				< 0.5 µM	< 1 µM	< 5 µM
Cc1ccccc1CNc1cc(-c2cn[nH]c2C(C)C)ccn1 [Example 14, [4-(5-Isopropyl-1H-pyrazol-4-yl)-pyridin-2-yl]-(2-methyl-benzyl)-amine]				< 5 µM	< 5 µM	< 0.1 µM
CC(C)c1[nH]ncc1-c1ccnc(NC2CCN(Cc3ccccc3)CC2)c1 [Example 45]				< 15 µM	≥ 15 µM	< 0.5 µM
CC(C)c1[nH]ncc1-c1ccnc(NC2CCc3ccccc32)c1 (stereo not drawn) [Example 43]				< 5 µM	< 5 µM	< 0.5 µM
CC(C)c1[nH]ncc1-c1ccnc(NCC2CC2)c1 [Example 8]				< 5 µM	< 5 µM	< 0.5 µM
c1cc(-c2cn[nH]c2C2CCCC2)cc(NC2CCCC2)n1 [Example 3]				< 1 µM	< 0.5 µM	< 0.5 µM
CC(C)c1[nH]ncc1-c1ccnc(NCc2ccc(F)cc2)c1 [Example 30]				< 5 µM	< 5 µM	< 5 µM
CC(C)c1[nH]ncc1-c1ccnc(NCCc2ccccn2)c1 [Example 29]				< 10 µM	< 5 µM	< 1 µM
CC(C)c1[nH]ncc1-c1ccnc(NCC2CCCCCC2)c1 [Example 20]				< 5 µM	< 5 µM	< 5 µM

The remaining lines, values ahead:

IC50 (hCDK1/B; Table 2)	IC50 (CDK2 cyA; [1])	IC50 (CDK4; [2])	IC50 (hCDK1/B; Table 1)	IC50 (CDK2 cyA; [3])	IC50 (CDK4; Table 1, read-out: CDK4 HTRF)	SMILES
< 5 µM	< 5 µM	< 0.5 µM				Cc1n[nH]cc1-c1ccnc(NC2CCN(c3ccccc3)CC2)n1 [Example 136]
< 5 µM	< 10 µM	< 10 µM				CC(C)c1n[nH]cc1-c1ccnc(N[C@@H](C)c2ccccc2)n1 [Example 182]
< 10 µM	< 10 µM	< 0.5 µM				CC(C)c1n[nH]cc1-c1ccnc(NC(C)c2ccccn2)n1 (stereo not drawn) [Example 183]
			< 5 µM	< 5 µM	< 0.5 µM	c1ccc2c(c1)CCC2Nc1cc(-c2cn[nH]c2C2CC2)ccn1 (stereo not drawn) [Example 70]
< 5 µM	< 5 µM	< 1 µM				CC(C)c1n[nH]cc1-c1nc(NC2CCN(C)CC2)ncc1Br [Example 180]
< 1 µM	< 5 µM	< 5 µM				CC(C)c1n[nH]cc1-c1ccnc(NCCCN(C)c2ccccc2)n1 [Example 142]
≥ 15 µM	> 15 µM	< 0.5 µM				CC(C)c1n[nH]cc1-c1ccnc(NC2CCCc3cccnc32)n1 (stereo not drawn) [Example 186]
< 15 µM	< 15 µM	< 0.5 µM				Cc1n[nH]cc1-c1ccnc(NC2CCN(C)CC2)n1 [Example 90]
< 10 µM	< 10 µM	< 1 µM				Cc1n[nH]cc1-c1ccnc(NC2CCN(Cc3ccccc3)C2)n1 (stereo not drawn) [Example 114]
< 1 µM	< 1 µM	< 5 µM				CC(C)c1n[nH]cc1-c1ccnc(NCc2ccccc2Cl)n1 [Example 153]
< 5 µM	< 5 µM	< 0.5 µM				CC(C)c1n[nH]cc1-c1ccnc(NC2CC(C)(C)c3ccccc32)n1 (stereo not drawn) [Example 191]
			< 5 µM	< 5 µM	< 1 µM	c1cc(-c2cn[nH]c2C2CCCC2)cc(NCC2CC2)n1 [Example 57]
			< 5 µM	< 10 µM	< 1 µM	CCC(CC)c1[nH]ncc1-c1ccnc(NC2CCN(C)CC2)c1 [Example 73]
< 5 µM	< 5 µM	< 0.5 µM				Cc1cnc(NC2CCN(C)CC2)nc1-c1c[nH]nc1C(C)C [Example 184]
< 10 µM	≥ 15 µM	< 0.5 µM				CC(CN(C)C)Nc1nccc(-c2c[nH]nc2C(C)C)n1 (stereo not drawn) [Example 143]
< 1 µM	< 5 µM	< 0.5 µM				CC(CCCC(C)(C)O)Nc1nccc(-c2c[nH]nc2C(C)C)n1 (stereo not drawn) [Example 145]
< 5 µM	< 10 µM	< 1 µM				CC(C)c1n[nH]cc1-c1ccnc(NCCCN(C)C)n1 [Example 167]
< 5 µM	< 5 µM	< 0.5 µM				CC(C)c1nn(C)cc1-c1ccnc(NC2CCN(C)CC2)n1 [Example 181]
< 10 µM	< 10 µM	< 5 µM				Cc1ccccc1CNc1nccc(-c2c[nH]nc2C)n1 [Example 137]
			< 15 µM	≥ 15 µM	< 10 µM	Cc1ccccc1CNc1cc(-c2cn[nH]c2C(C)(C)C)ccn1 [Example 76]
< 10 µM	< 15 µM	< 0.5 µM				Cc1nnc(C(C)Nc2nccc(-c3c[nH]nc3C(C)C)n2)[nH]1 (stereo not drawn) [Example 162]
< 1 µM	< 5 µM	< 1 µM				CC(C)c1n[nH]cc1-c1ccnc(NCc2c(F)cccc2F)n1 [Example 157]
< 5 µM	< 5 µM	< 1 µM				Cc1n[nH]cc1-c1ccnc(NC2CCCCCC2)n1 [Example 87]
< 0.5 µM	< 0.5 µM	< 0.05 µM				CCC(C)Nc1nccc(-c2c[nH]nc2C(C)C)n1 (stereo not drawn) [Example 171]
			< 5 µM	< 1 µM	< 0.5 µM	c1cc(-c2cn[nH]c2C2CCCC2)cc(NC2CCCCC2)n1 [Example 54]
< 15 µM	≥ 15 µM	< 0.5 µM				CC(C)c1n[nH]cc1-c1ccnc(NCCN2CCCCC2)n1 [Example 173]
